Test system: CNGA2 ion channel
Experiment: Experiments with skatole on direct activation of the CNGA2 ion channel
Format: cell-based, human
Settings: CNGA2 ion channel of all odor receptor cells, in addition to specific odor receptors

Cc1c[nH]c2ccccc12 [skatole, 3-methylindole]
Activation of the CNGA2 ion channel: directly activates
